Experimental data published in US20150175530A1, “ANTIBACTERIAL AGENTS” (priority 2012, published 2015).
Converted amounts (≈) assume the structure as drawn. Read-outs that look alike come from different tables or passages of the source.

What was measured:
[1] = test system: bacterial isolates (clinical isolates and ATCC quality control strains); experiment: Minimum Inhibitory Concentrations (MICs) by broth microdilution (CLSI susceptibility testing); format: cell-based
How it was run: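 Broth microdilution per CLSI in cation-adjusted Mueller-Hinton broth, 2-fold serial drug dilutions, final inoculum 3×10^5–7×10^5 CFU/mL. Plates incubated 18-24 h at 35 °C in ambient air; MIC is lowest concentration preventing visible growth (OD600 nm<0.05), with levofloxacin and QC strains monitoring performance.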

[2] = test system: 3 P. aeruginosa strains (APAE001, APAE002, APAE006); experiment: Protein binding: fold change in MIC in the presence of 2% HSA and 0.05% AGP, Geomean of 3 strains; format: cell-based, Pseudomonas aeruginosa; conditions: MIC in the presence of 2% HSA and 0.05% AGP divided by MIC in the absence; Geomean of 3 P. aeruginosa strains (APAE001, APAE002, APAE006)
How it was run: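 MIC against each strain was determined by the standard broth method in cation-adjusted Mueller-Hinton broth with and without 2% HSA plus 0.05% AGP. Fold change is the MIC ratio with/without protein per strain; the value reported is the geometric mean over APAE001, APAE002 and APAE006.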

[3] = APAE1096 is a clinical isolate, broth microdilution, read-out: Minimum Inhibitory Concentrations (MICs) APAE1096
[4] = Pseudomonas aeruginosa, APAE002 is a wildtype lab strain of Pseudomonas aeruginosa known as PAM1020 or PA01, broth microdilution, read-out: Minimum Inhibitory Concentrations (MICs) APAE002
[5] = Pseudomonas aeruginosa, ATCC27853, APAE001 is Pseudomonas aeruginosa ATCC27853, broth microdilution, read-out: Minimum Inhibitory Concentrations (MICs) APAE001
[6] = Pseudomonas aeruginosa, ATCC27853, read-out: Minimum Inhibitory Concentrations (MICs) APAE001
[7] = Pseudomonas aeruginosa, read-out: Minimum Inhibitory Concentrations (MICs) APAE002
[8] = read-out: Minimum Inhibitory Concentrations (MICs) APAE1096

SMILES | MIC [1, 3] | MIC [1, 4] | MIC [1, 5] | Protein Binding PB (Geomean of fold change in MIC) [2] | MIC [1, 6] | MIC [1, 7] | MIC [1, 8]
C[C@@H](O)[C@H](NC(=O)c1ccc(C#CC#CCCO)cc1)C(=O)NO [Compound 38, N-((2S,3R)-3-hydroxy-1-(hydroxyamino)-1-oxobutan-2-yl)-4-(6-hydroxyhexa-1,3-diyn-1-yl)benzamide] | 1 to 8 µg/mL (≈ 3.03 to 24.2 µM) | < 1 µg/mL | 1 to 8 µg/mL (≈ 3.03 to 24.2 µM) | 2 | – | – | –
CC(C#CC#Cc1ccc(C(=O)N[C@H](C(=O)NO)C(C)(C)N)cc1)CO (stereo partly drawn) [Compound 39, N—((S)-3-amino-1-(hydroxyamino)-3-methyl-1-oxobutan-2-yl)-4-(6-hydroxy-5-methylhexa-1,3-diyn-1-yl)benzamide] | 1 to 8 µg/mL (≈ 2.8 to 22.4 µM) | < 1 µg/mL | < 1 µg/mL | 2.8 | – | – | –
C[C@H](O)C#CC#Cc1ccc(C(=O)N[C@H](C(=O)NO)C(C)(C)O)cc1 [Compound 40, N—((S)-3-hydroxy-1-(hydroxyamino)-3-methyl-1-oxobutan-2-yl)-4-((S)-5-hydroxyhexa-1,3-diyn-1-yl)benzamide] | 1 to 8 µg/mL (≈ 2.9 to 23.2 µM) | < 1 µg/mL | 1 to 8 µg/mL (≈ 2.9 to 23.2 µM) | 2.6 | – | – | –
C[C@H](O)C#CC#Cc1ccc(C(=O)N[C@H](C(=O)NO)[C@@H](C)N)cc1 [Compound 41, N-((2S,3R)-3-amino-1-(hydroxyamino)-1-oxobutan-2-yl)-4-((S)-5-hydroxyhexa-1,3-diyn-1-yl)benzamide] | 1 to 8 µg/mL (≈ 3.04 to 24.3 µM) | < 1 µg/mL | < 1 µg/mL | 2 | – | – | –
C[C@H](O)C#CC#Cc1ccc(C(=O)N[C@H](C(=O)NO)[C@@H](C)O)cc1 [Compound 42, N-((2S,3R)-3-hydroxy-1-(hydroxyamino)-1-oxobutan-2-yl)-4-((S)-5-hydroxyhexa-1,3-diyn-1-yl)benzamide] | 8 to 16 µg/mL (≈ 24.2 to 48.4 µM) | 1 to 8 µg/mL (≈ 3.03 to 24.2 µM) | 1 to 8 µg/mL (≈ 3.03 to 24.2 µM) | 2.6 | – | – | –
CNC(C)(C)[C@H](NC(=O)c1ccc(C#CC#CC[C@H](O)CO)cc1)C(=O)NO [Compound 43, 4-((S)-6,7-dihydroxyhepta-1,3-diyn-1-yl)-N—((S)-1-(hydroxyamino)-3-methyl-3-(methylamino)-1-oxobutan-2-yl)benzamide] | 1 to 8 µg/mL (≈ 2.58 to 20.6 µM) | < 1 µg/mL | < 1 µg/mL | 1.6 | – | – | –
CNC(C)(C)[C@H](NC(=O)c1ccc(C#CC#CC[C@@H](O)CO)cc1)C(=O)NO [Compound 44, 4-((R)-6,7-dihydroxyhepta-1,3-diyn-1-yl)-N—((S)-1-(hydroxyamino)-3-methyl-3-(methylamino)-1-oxobutan-2-yl)benzamide] | 1 to 8 µg/mL (≈ 2.58 to 20.6 µM) | < 1 µg/mL | < 1 µg/mL | 2.0 | – | – | –
C[C@@H](N)[C@H](NC(=O)c1ccc(C#CC#CC(O)CO)cc1)C(=O)NO (stereo partly drawn) [Compound 45, N-((2S,3R)-3-amino-1-(hydroxyamino)-1-oxobutan-2-yl)-4-(5,6-dihydroxyhexa-1,3-diyn-1-yl)benzamide] | – | – | – | 2.0 | 1 to 8 µg/mL (≈ 2.9 to 23.2 µM) | < 1 µg/mL | 1 to 8 µg/mL (≈ 2.9 to 23.2 µM)
COC(C#CC#Cc1ccc(C(=O)N[C@H](C(=O)NO)C(C)(C)N)cc1)CO (stereo partly drawn) [Compound 47, N—((S)-3-amino-1-(hydroxyamino)-3-methyl-1-oxobutan-2-yl)-4-(6-hydroxy-5-methoxyhexa-1,3-diyn-1-yl)benzamide] | – | – | – | 2.6 | < 1 µg/mL | < 1 µg/mL | 1 to 8 µg/mL (≈ 2.68 to 21.4 µM)
CN[C@H](C)[C@H](NC(=O)c1ccc(C#CC#CCCO)cc1)C(=O)NO [Compound 48, N-((2S,3R)-1-(hydroxyamino)-3-(methylamino)-1-oxobutan-2-yl)-4-(6-hydroxyhexa-1,3-diyn-1-yl)benzamide] | 1 to 8 µg/mL (≈ 2.91 to 23.3 µM) | < 1 µg/mL | < 1 µg/mL | 2.0 | – | – | –
CN[C@H](C)[C@H](NC(=O)c1ccc(C#CC#C[C@H](C)O)cc1)C(=O)NO [Compound 49, N-((2S,3R)-1-(hydroxyamino)-3-(methylamino)-1-oxobutan-2-yl)-4-((S)-5-hydroxyhexa-1,3-diyn-1-yl)benzamide] | 1 to 8 µg/mL (≈ 2.91 to 23.3 µM) | < 1 µg/mL | < 1 µg/mL | 2.0 | – | – | –
CC(O)(C#CC#Cc1ccc(C(=O)N[C@H](C(=O)NO)C(C)(C)N)cc1)CO (stereo partly drawn) [Compound 50, N—((S)-3-amino-1-(hydroxyamino)-3-methyl-1-oxobutan-2-yl)-4-(5,6-dihydroxy-5-methylhexa-1,3-diyn-1-yl)benzamide] | 8 to 16 µg/mL (≈ 21.4 to 42.8 µM) | 1 to 8 µg/mL (≈ 2.68 to 21.4 µM) | < 1 µg/mL | 1.6 | – | – | –
CNC(C)(C)[C@H](NC(=O)c1ccc(C#CC#CC(O)CO)cc1)C(=O)NO (stereo partly drawn) [Compound 51, 4-(5,6-dihydroxyhexa-1,3-diyn-1-yl)-N—((S)-1-(hydroxyamino)-3-methyl-3-(methylamino)-1-oxobutan-2-yl)benzamide] | 1 to 8 µg/mL (≈ 2.68 to 21.4 µM) | < 1 µg/mL | < 1 µg/mL | 1.6 | – | – | –
CC(C)(N)[C@H](NC(=O)c1ccc(C#C/C=C/CC(O)CO)cc1)C(=O)NO (stereo partly drawn) [Compound 52, N—((S)-3-amino-1-(hydroxyamino)-3-methyl-1-oxobutan-2-yl)-4-((E)-6,7-dihydroxyhept-3-en-1-yn-1-yl)benzamide] | 8 to 16 µg/mL (≈ 21.3 to 42.6 µM) | 1 to 8 µg/mL (≈ 2.66 to 21.3 µM) | 1 to 8 µg/mL (≈ 2.66 to 21.3 µM) | 1.0 | – | – | –
C[C@@H](CO)[C@H](O)C#CC#Cc1ccc(C(=O)N[C@H](C(=O)NO)C(C)(C)N)cc1 [Compound 53, N—((S)-3-amino-1-(hydroxyamino)-3-methyl-1-oxobutan-2-yl)-4-((5S,6S)-5,7-dihydroxy-6-methylhepta-1,3-diyn-1-yl)benzamide] | 8 to 16 µg/mL (≈ 20.6 to 41.3 µM) | 1 to 8 µg/mL (≈ 2.58 to 20.6 µM) | 1 to 8 µg/mL (≈ 2.58 to 20.6 µM) | 2.0 | – | – | –
CC(C)(N)[C@H](NC(=O)c1ccc(C#CC#C[C@@H](O)CCO)cc1)C(=O)NO [Compound 54, N—((S)-3-amino-1-(hydroxyamino)-3-methyl-1-oxobutan-2-yl)-4-((S)-5,7-dihydroxyhepta-1,3-diyn-1-yl)benzamide] | 8 to 16 µg/mL (≈ 21.4 to 42.8 µM) | < 1 µg/mL | < 1 µg/mL | 2.0 | – | – | –
CC(C)(N)[C@H](NC(=O)c1ccc(C#C/C=C/CCO)cc1)C(=O)NO [Compound 55, (S,E)-N-(3-amino-1-(hydroxyamino)-3-methyl-1-oxobutan-2-yl)-4-(6-hydroxyhex-3-en-1-yn-1-yl)benzamide] | 1 to 8 µg/mL (≈ 2.9 to 23.2 µM) | < 1 µg/mL | < 1 µg/mL | 2.0 | – | – | –
CN[C@H](C)[C@H](NC(=O)c1ccc(C#CC#CCO)cc1)C(=O)NO [Compound 56, N-((2S,3R)-1-(hydroxyamino)-3-(methylamino)-1-oxobutan-2-yl)-4-(5-hydroxypenta-1,3-diyn-1-yl)benzamide] | 1 to 8 µg/mL (≈ 3.04 to 24.3 µM) | < 1 µg/mL | < 1 µg/mL | 2.5 | – | – | –
CC(C)(N)[C@H](NC(=O)c1ccc(C#CC#CC2(O)CCC(CO)C2)cc1)C(=O)NO (stereo partly drawn) [Compound 57, N—((S)-3-amino-1-(hydroxyamino)-3-methyl-1-oxobutan-2-yl)-4-((1-hydroxy-3-(hydroxymethyl)cyclopentyl)buta-1,3-diyn-1-yl)benzamide] | 1 to 8 µg/mL (≈ 2.42 to 19.3 µM) | < 1 µg/mL | < 1 µg/mL | 1.6 | – | – | –
CC(C)(N)[C@H](NC(=O)c1ccc(C#C/C=C/C(O)CO)cc1)C(=O)NO (stereo partly drawn) [Compound 58, N—((S)-3-amino-1-(hydroxyamino)-3-methyl-1-oxobutan-2-yl)-4-((E)-5,6-dihydroxyhex-3-en-1-yn-1-yl)benzamide] | 8 to 16 µg/mL (≈ 22.1 to 44.3 µM) | 1 to 8 µg/mL (≈ 2.77 to 22.1 µM) | 1 to 8 µg/mL (≈ 2.77 to 22.1 µM) | 1.0 | – | – | –
